Experimental findings from patent publication US5583142A, “Analgesic and nootropic drugs” (priority 1992, dated 1996) are described below.

Where “and” joins values, the source holds several entries; their conditions need not be identical. Equal entries are not always repeated. Where two headings read alike, the source gives them in different places.

Data set [1] in a line: mouse rota-rod test (16 r.p.m.). An excerpt:
All products tested to detect their antinociceptive activity had been previously tested by the rota-rod test to determine their maximum utilizable dose in analgesic tests. In fact, by this test it is possible to determine the highest dose of drug not impairing the normal performance of animals in a test that simultaneously evaluates motor coordination, equilibrium, resistance to fatigue, and muscle strength. This test is meant to evaluate the capability of mice to stay balanced on a rotating rod [cf. Vaught et al., Neuropharmacology, 24 (3) 211-216 (1985)].
The calculated doses were those used in the two analgesic tests on mice.
For orientation: The rotarod test checks motor coordination on a turning rod.

Data set [2] is classed as in vivo, mouse. As to the method: (§1) The analgesic action was detected in mouse, rat, guinea pig and dog. The mouse was subjected to hot plate and writhing tests; the rat to tail-flick and paw-pressure tests; the guinea pig to paw-pressure test only; the dog to the test described by Vainio et al. [J. Vet. Pharmacol. Ther., 12, 225-231 (1989)] using an electric stimulation. Consequently, the claimed compounds were tested with pain being induced by stimuli of different nature: thermal (hot plate and tail flick), chemical (writhing by acetic acid), mechanical (paw pressure) and electrical (cutaneous stimulation).
Potency, efficacy and toxicity of SM21, PG9 and SM32 in comparison with
four principal reference analgesic drugs tested in mouse. As analgesic

Data set [3] is described as follows: mouse acetic acid writhing test. The class given is in vivo. As to the method: as §1
The claimed molecules, chosen as examples, were also assayed in mice by the writhing test (Table 4). The test is meant to evaluate the products capability to prevent mice writhes ensuing abdominal pains caused by i.p. injection of a 0.6% aqueous solution of acetic acid.
Acetic acid solution = 0.6% v/v.

A short description of data set [4]: rat paw-pressure test. The class given is in vivo. The conditions noted are these: for paw-pressure: 15 mg/kg i.p. How it is done: as §1
(§2) As already mentioned, the claimed products were assayed also in rat by the paw-pressure and tail-flick tests.
(§3) Both tests were carried out with the max. doses not impairing the rats normal behaviour. […] The painful stimulus utilized in the paw-pressure test involved the animal consciousness to a much greater extent than the stimulus used in the tail-flick test, in fact, the type and anatomic localization of the latter mainly involved a spinal response.
(§4) Both tests on rats were carried out with the max. doses not altering the behaviour of the treated animals.

The nature of data set [5]: rat tail-flick test. The class given is in vivo. The conditions noted are these: for tail-flick: 15 mg/kg i.p. As to the method: as §1, §2, §3, §4
The test was performed using th
On the technique in general: Thermal pain tests record how soon the animal reacts.

A short description of data set [6]: paw-pressure test in rats with a lesion in the nucleus basalis magnocellularis (NBM). The class given is in vivo, rat. The conditions noted are these: 4 mg/kg i.p. An excerpt: 3. […] In fact, as known, the magnocellular basal nucleus destruction causes the degeneration of most central cholinergic system.

On to `CN(C)CCOC(c1ccccc1)c1ccccc1` [Diphenhydramine, reference compound], for which the “rota-rod performance (number of falls in 30 s)” value in data set [1] (25 mg/kg s.c., 15 min after treatment) is recorded as 2.0 ± 0.5 falls in 30 s; in data set [1] (25 mg/kg s.c., 30 min after treatment) it was 1.0 ± 0.3 falls in 30 s; in data set [1] (25 mg/kg s.c., 45 min after treatment) it was 1.4 ± 0.4 falls in 30 s; in data set [1] (30 mg/kg s.c., 15 min after treatment) it was 2.1 ± 0.4 falls in 30 s; in data set [1] (30 mg/kg s.c., 30 min after treatment), 1.5 ± 0.3 falls in 30 s; in data set [1] (30 mg/kg s.c., 45 min after treatment) it was 1.5 ± 0.4 falls in 30 s. In addition, the “rota-rod performance (number of falls in 30 s)” value in data set [1] (40 mg/kg s.c., 15 min after treatment) is on record as 4.3 ± 0.4 falls in 30 s; in data set [1] (40 mg/kg s.c., 30 min after treatment), 3.1 ± 0.4 falls in 30 s; in data set [1] (40 mg/kg s.c., 45 min after treatment) it was 2.3 ± 0.4 falls in 30 s. In addition, the “ED50 compared with claimed compounds” value in data set [2] (mouse hot plate) is reported as “equivalent to those of the claimed compounds”. Also, the “analgesic efficacy / degree of analgesia compared with claimed compounds” value in data set [2] (mouse hot plate) was “much lower degree of analgesia”. Besides, the “Efficacy as analgesic (Morphine = 100), M.E. (Maximum Analgesic Effect)” value in data set [2] (mouse, in vivo) came out at 43. Also, the hot-plate latency is reported as 21.6 ± 2.5 s in data set [2] (mouse, 20 mg/kg i.p., 15 min after treatment); 17.7 ± 1.6 s in data set [2] (mouse, 20 mg/kg i.p., 30 min after treatment); 17.1 ± 1.8 s in data set [2] (mouse, 20 mg/kg i.p., 45 min after treatment); 23.6 ± 2.6 s in data set [2] (mouse, 20 mg/kg s.c., 15 min after treatment); 18.0 ± 1.4 s in data set [2] (mouse, 20 mg/kg s.c., 30 min after treatment); 18.7 ± 2.1 s in data set [2] (mouse, 20 mg/kg s.c., 45 min after treatment). Further, the “efficacy in writhing test, in words” value in data set [3] (mouse) was “far less efficacious”. The same molecule gave a number of writhes in data set [3] (mouse, 20 mg/kg s.c.) of 24.6 ± 2.4. The “Efficacy as analgesic (Morphine = 100)” value in data set [3] (mouse, writhing, 20 mg/kg s.c.) was determined as 38. The same molecule registered a percent inhibition in data set [3] (mouse, writhing, 20 mg/kg s.c.) of 28.1%. Moreover, the median effective dose (ED50) in data set [3] (sc, mouse writhing) was 7.8 mg/kg and 30.5 µmol/kg. Also, the “activity in paw-pressure test, in words” value in data set [4] is “inactive”. Also, the paw-pressure in data set [4] (15 min after treatment) came to 72.6 ± 6.8 g; in data set [4] (30 min after treatment), 70.0 ± 5.4 g; in data set [4] (45 min after treatment), 68.0 ± 6.6 g. For the same molecule, the “activity in tail-flick test, in words” value in data set [5] is “inactive”. Moreover, the tail-flick is given as 2.9 ± 0.2 s in data set [5] (15 min after treatment), 2.5 ± 0.2 s in data set [5] (30 min after treatment) and 2.5 ± 0.1 s in data set [5] (45 min after treatment).

With `NCC(CC(=O)O)c1ccc(Cl)cc1` (stereo not shown) [Baclofen, reference compound], the paw-pressure is 117.4 ± 6.4 g in data set [6] (lesioned (NBM) rats, 15 min after treatment); 137.9 ± 4.8 g in data set [6] (lesioned (NBM) rats, 30 min after treatment); 131.8 ± 5.7 g in data set [6] (lesioned (NBM) rats, 45 min after treatment); 108.7 ± 6.6 g in data set [6] (sham rats, 15 min after treatment); 132.8 ± 5.9 g in data set [6] (sham rats, 30 min after treatment); 124.7 ± 5.8 g in data set [6] (sham rats, 45 min after treatment).

As usually defined, the ED50 is the dose at which the effect has come halfway, by size or by number of responders.
